Measurements taken from PMC9479156 (Frontiers in Pharmacology, 2022).

Legend:
[1] = test system: BEAS-2B non-tumorigenic human bronchial epithelium; assay: MTT cytotoxicity assay BEAS-2B; format: cell-based; settings: MTT, 72 h, ± SD, read-out: IC50 BEAS-2B
Protocol: (§1) Proliferative and non-proliferative mammalian cell lines: human liver and lung cancer cell lines HepG2 and A549, and immortalized normal liver LO2 and lung BEAS-2B cells were purchased from ATCC (Manassas, VA, United States). Cells were cultured in RPMI-1640 medium supplemented with 10% fetal bovine serum and antibiotics penicillin (50 U/mL) and streptomycin (50 μg/ml; Invitrogen, United Kingdom). All cells were incubated at 37°C in a 5% humidified CO2 incubator.
(§2) All test compounds were dissolved in DMSO at a final concentration of 50 mM and stored at −20°C before use. Cytotoxicity was assessed with A549, HepG2, BEAS-2B and LO2 cells. The MTT assay with 3-(4,5-dimethylthiazole-2yl)-2,5-diphenyltetrazolium bromide (5 mg/ml) was performed as previously described ([Ng et al., 2022]). Briefly, 4 × 10^3 cells per well were seeded in 96-well plates before drug treatment. After overnight cell culture, the cells were exposed to different concentrations of selected compounds (0.19–100 μM) for 72 h. Cells without drug treatment were used as control. Next, 10 μl of the MTT solution was added to each well and incubated at 37°C for another 4 h. Solubilization buffer (100 μl) was then added (10 mM HCl in a solution of 10% of SDS) and incubated overnight. The absorbance A at 570 nm was measured on the next day. The percentage of cell viability was calculated using the following formula: Cell viability (%) = Atreated/Acontrol × 100. Dose response curves for all assays are given in the Supplementary Figures S3–S6.
(§3) Cytotoxicity was assessed for each of artemisinin, DHA and artemether, and the amino-artemisinins artemiside and artemisone, and celastrol against A549 human lung carcinoma, BEAS-2B non-tumorigenic human bronchial epithelium, HepG2 liver hepatocellular carcinoma and LO2 human normal hepatocytes using the MTT assay ([Ng et al., 2022]). Data are presented in Table 4, and dose response curves are given in the Supplementary Figures S3–S6.

[2] = test system: LO2 human normal hepatocytes; assay: MTT cytotoxicity assay LO2; format: cell-based; settings: Hepatocyte, MTT, 72 h, ± SD, read-out: IC50 LO2
Protocol: as §1, §2, §3

[3] = test system: A549 human lung carcinoma; assay: MTT cytotoxicity assay A549; format: cell-based; settings: for IC50: Homo sapiens, A549, MTT, 72 h, ± SD, read-out: IC50 A549
Protocol: as §1, §2, §3

[4] = test system: HepG2 liver hepatocellular carcinoma; assay: MTT cytotoxicity assay HepG2; format: cell-based, human; settings: for IC50: Homo sapiens, HepG2, MTT, 72 h, ± SD, read-out: IC50 HepG2; for SI, selectivity index IC50 normal cell line/IC50 tumour cell line: LO2/HepG2
Protocol: as §1, §2, §3

[5] = test system: immature stage II-III P. falciparum NF54 gametocytes; set-up: method as in Coertzen et al., 2018, Wong et al., 2019; settings: ref Coertzen et al., 2018, Wong et al., 2019, cited from earlier work; for IC50: NF54 gametocytes, luciferase, 48 h, mean ± SEM, read-out: Immature stage II-III (luc 48 h) IC50; for Fold change preference ratio EG to LG: immature vs late stage gametocytes
[6] = test system: asexual blood stage P. falciparum NF54 (drug sensitive); set-up: method as in Coertzen et al., 2018; Wong et al., 2019; settings: SYBR Green I, mean ± SEM, ref Coertzen et al., 2018, Wong et al., 2019; cited from earlier work
[7] = test system: late stage IV-V P. falciparum NF54 gametocytes; set-up: method as in Coertzen et al., 2018, Wong et al., 2019; settings: ref Coertzen et al., 2018, Wong et al., 2019, cited from earlier work; for IC50: NF54 gametocytes, luciferase, 72 h, mean ± SEM, read-out: Late stage IV-V (luc 72 h) IC50; for Fold change preference ratio LG to EG: late vs immature stage gametocytes
[8] = test system: asexual blood stage P. falciparum K1 (multidrug resistant); settings: ref Coertzen et al., 2018, Wong et al., 2019, cited from earlier work; for IC50: asexual blood stage, SYBR Green I, mean ± SEM
[9] = test system: asexual blood stage P. falciparum W2 (multidrug resistant); set-up: method as in Coertzen et al., 2018; Wong et al., 2019; settings: ref Coertzen et al., 2018, Wong et al., 2019, cited from earlier work; for IC50: asexual blood stage, SYBR Green I, mean ± SEM
[10] = test system: LO2 human normal hepatocytes; assay: Cytotoxicity drug combination (isobole) assay LO2; format: cell-based
Protocol: (§4) For the drug combination inhibitory assays, six drug preparations, of which four comprised combinations of either artemiside or artemisone with celastrol in a fixed ratio of 80:20, 60:40, 40:60, and 20:80 were prepared and screened against HepG2 liver hepatocellular carcinoma and LO2 human normal hepatocytes respectively. Two of these six preparations employed each of artemiside, artemisone or celastrol alone at a concentration approximately 5–7 times higher than the IC50 of the individual drug as presented in Table 4. […] Thus, six combinations for artemiside (µM) and celastrol (µM) prepared were 500:0, 400:4, 300:8, 200:12, 100:16, and 0:20, respectively.
(§5) As above for the malaria combination assays, a mean ΣFIC<1.0 represents a synergistic interaction, >1.3 represents an antagonistic interaction and ΣFIC = 1 represents an indifferent or additive interaction. Additivity, synergism and antagonism were also be established from the linear plots constructed from the FIC values of each of the drugs. A concave hyperbolic plot indicates synergism, a convex hyperbolic plot indicates an antagonistic interaction, and a straight line indicates an additive interaction. Isobole analysis of the combinations of each of artemiside and artemisone in combination with celastrol was performed against HepG2 and LO2 cells respectively. In Figure 5 is presented the isoboles for each drug combination.
(§6) Next, combinations of each of artemiside and artemisone with celastrol were examined, according to the method used to establish additivity/synergism described above. […] Against the normal hepatocyte LO2 cell line, whilst the interaction of artemisone with celastrol was synergistic, that of artemiside was additive. Synergism and additivity were also evident from the linear plots determined from the FIC values of each of the drugs (Table 5 and Figure 6). Thus, synergism is confirmed for combinations of the amino-artemisinins with celastrol against the HepG2 carcinoma cell line, and for artemisone-celastrol against human normal hepatocyte LO2.

[11] = test system: HepG2 liver hepatocellular carcinoma; assay: Cytotoxicity drug combination (isobole) assay HepG2; format: cell-based, human
Protocol: as §4, §5, §6

| Structure (SMILES) | IC50 [1] [nM] | IC50 [2] [nM] | IC50 [3] [nM] | IC50 [4] [nM] | IC50 [5] [nM] | IC50 [6] [nM] | IC50 [7] [nM] | IC50 [8] [nM] | IC50 [9] [nM] | Fold change preference ratio EG to LG [5] | Fold change preference ratio LG to EG [7] | RI (resistance index) = IC50 K1/IC50 NF54 [8] | SI, selectivity index IC50 normal cell line/IC50 tumour cell line [4] | RI = IC50 W2/IC50 NF54 [9] | other results |
| --- | --- | --- | --- | --- | --- | --- | --- | --- | --- | --- | --- | --- | --- | --- | --- |
| C[C@@H]1CC[C@H]2[C@@H](C)C(=O)O[C@@H]3O[C@@]4(C)CC[C@@H]1[C@]32OO4 [Artemisinin, artemisinin, reference compound] | > 100000 | > 100000 | > 100000 | > 100000 | – | – | – | – | – | – | – | – | – | – | – |
| C[C@H]1[C@H](OC(=O)CCC(=O)O)O[C@@H]2O[C@@]3(C)CC[C@H]4[C@H](C)CC[C@@H]1[C@@]24OO3 [Artesunate, artesunate] | – | – | – | – | 62.8 ± 3 | 3 ± 0.29 | 259 ± 80 | 4 ± 1 | 2.4 ± 0.4 | – | – | – | – | – | – |
| CO[C@H]1O[C@@H]2O[C@@]3(C)CC[C@H]4[C@H](C)CC[C@@H]([C@H]1C)[C@@]24OO3 [Artemether, artemether] | > 100000 | > 100000 | > 100000 | 1020 ± 200 | 37.7 ± 2 | 1.86 ± 0.17 | 136 ± 85.9 | 9 ± 2 | 7 ± 1 | 3.6 | 0.28 | 4.8 | >98 | 3.8 | – |
| C[C@H]1[C@H](N2CCSCC2)O[C@@H]2O[C@@]3(C)CC[C@H]4[C@H](C)CC[C@@H]1[C@@]24OO3 [Artemiside, artemiside] | 32100 ± 2700 | > 100000 | > 100000 | 550 ± 20 | 16.4 ± 1 | 1.11 ± 0.17 | 1.5 ± 0.5 | 1.6 ± 0.4 | 1.75 ± 0.27 | 0.09 | 10.9 | 1.47 | >183 | 1.58 | FIC ([10]; artemiside:celastrol drug ratio 20:80, LO2): 0.09; FIC ([10]; artemiside:celastrol drug ratio 40:60, LO2): 0.33; FIC ([10]; artemiside:celastrol drug ratio 60:40, LO2): 0.45; FIC ([10]; artemiside:celastrol drug ratio 80:20, LO2): 0.59; SI, selectivity index IC50 normal cell line/IC50 tumour cell line ([3]; BEAS-2B/A549): <0.3; FIC ([11]; artemiside:celastrol drug ratio 20:80, HepG2): 0.16; FIC ([11]; artemiside:celastrol drug ratio 40:60, HepG2): 0.42; FIC ([11]; artemiside:celastrol drug ratio 60:40, HepG2): 0.4; FIC ([11]; artemiside:celastrol drug ratio 80:20, HepG2): 0.57; SI, selectivity index IC50 normal cell line/IC50 tumour cell line ([4]; listed as artemiside): > 170 |
| C[C@@H]1CC[C@H]2[C@@H](C)C(O)O[C@@H]3O[C@@]4(C)CC[C@@H]1[C@]32OO4 (stereo partly drawn) [DHA] | 21200 ± 1400 | 30700 ± 2200 | 62600 ± 3400 | > 100000 | 43 ± 3.9 | 2.51 ± 0.19 | 33.7 ± 1.98 | 1.51 ± 0.33 | 1.74 ± 0.22 | 0.78 | 1.3 | 0.6 | – | 0.7 | – |
